Earlier results as cited in article PMC6921407, “Novel coumarins active against Trypanosoma cruzi and toxicity assessment using the animal model Caenorhabditis elegans” (BMC Pharmacology & Toxicology, 2019).

Assays:
[1] = test system: C. elegans; parameters: method as in PMID 23727123; details: for the worm; cited from earlier work
[2] = test system: T. cruzi; parameters: method as in doi:10.1351/pac200173030617; details: proposed mechanism glyceraldehyde 3-phosphate dehydrogenase inhibition; cited from earlier work
[3] = test system: Trypanosoma cruzi epimastigotes (Tulahuen 2 strain); parameters: method as in PMID 19811923; details: in vitro, epimastigote form of T. cruzi; cited from earlier work
[4] = test system: Trypanosoma cruzi; parameters: method as in PMID 24340110; details: cited from earlier work

Compound: CCCSc1ccc2nc(NC(=O)OC)[nH]c2c1 [albendazole]
- EC50 [1]: 18.4 µM

Compound: C=CC(C)(C)c1cc2cc3c(cc2oc1=O)O[C@H](C(C)(C)O)C3 [Chalepin]
- IC50 [2]: 64 µM

Compound: O=C(Cn1ccnc1[N+](=O)[O-])NCc1ccccc1 [Benznidazole]
- IC50 compared with Nifurtimox [3]: very similar IC50 values

Compound: Soulamarin
- IC50 [4]: 210 µM
